Experimental findings from ChEMBL document CHEMBL6074644, “Design, synthesis, and activity evaluation of water-soluble propofol derivatives as anesthetic drugs” (Bioorg Med Chem Lett, 2024) are described below.

Structures are written as SMILES.

Series [1] is described as follows: Toxicity in iv dosed Kunming mouse assessed as lethal dose. In kind it is organism-based. As to conditions: in vivo.
Series [2] relates to Mus musculus. Kind of series: Anesthetic activity in Kunming mouse assessed as disappearance of flip reflex by measuring onset time administered as single bolus dose. Type of series: functional.
Series [3] in a line: Therapeutic index, ratio of LD50 for toxicity in iv dosed Kunming mouse assessed as lethal dose to ED50 for anesthetic activity in iv dosed Kunming mouse. Type of series: organism-based. As to conditions: in vivo, read-out: Ratio LD50/ED50.
The subject of series [4] is Mus musculus. Kind of series: Anesthetic activity in iv dosed Kunming mouse by up and down method. In kind it is functional.
Series [5] has as its system Mus musculus. Kind of series: Anesthetic activity in Kunming mouse assessed as reappearance of flip reflex by measuring duration time administered as single bolus dose. Type of series: functional.

What is called LD50 is the dose at which mortality reaches 50%. What is called ED50 is the dose at which the effect has come halfway, by size or by number of responders. Higher therefore signals weaker potency. Take `CCN1CCN(CCC(=O)Oc2c(C(C)C)cccc2C(C)C)CC1.Cl`: in series [1], the LD50 came to 38000 µmol/kg. In addition, the figures for the Time in the series on Mus musculus [2] and in the series with Mus musculus [5] were 2 s and 167 s, respectively. In addition, in series [3], the selectivity ratio came to 3.2. This compound also came in with an ED50 in the series on Mus musculus [4] of 12 mg/kg.
With `CCN1CCN(CC(=O)Oc2c(C(C)C)cccc2C(C)C)CC1.Cl`, the LD50 in series [1] stood at 11500 µmol/kg. Further, the Time with Mus musculus [2] was determined as 13 s; in the series with Mus musculus [5] it was 139 s. Besides, the selectivity ratio in series [3] came to 1.4. The compound also had an ED50 in the series on Mus musculus [4] of 8 mg/kg.
Taken in the same sequence, the figures for `CCN(CC)CCC(=O)Oc1c(C(C)C)cccc1C(C)C.Cl` were 58800 µmol/kg, 3 s, 162 s, 3.5 and 17 mg/kg.
Taken in the same sequence, the figures for `CC(C)c1cccc(C(C)C)c1OC(=O)CCN1CCOCC1.Cl` were 43800 µmol/kg, 16 s, 145 s, 3.6 and 12 mg/kg.
The like results for `CC(C)c1cccc(C(C)C)c1OC(=O)CCN1CCCCC1.Cl` were, in that order, 36900 µmol/kg, 21 s, 152 s, 4.5 and 8.2 mg/kg.
As to `CCCN(CCC)CC(=O)OCCCC(=O)Oc1c(C(C)C)cccc1C(C)C.Cl`, the median lethal dose (LD50) in series [1] is 45900 µmol/kg. Further, the results for the Time with Mus musculus [2] and with Mus musculus [5] were 37 s and 402 s, respectively. The selectivity ratio in series [3] turned out to be 5.1. Moreover, the ED50 in the series with Mus musculus [4] came to 9 mg/kg.
On to `CCN(CC)CC(=O)OCCCC(=O)Oc1c(C(C)C)cccc1C(C)C.Cl`, for which the median lethal dose (LD50) in series [1] was determined as 52800 µmol/kg. The Time was 20 s with Mus musculus [2] and 371 s with Mus musculus [5]. The selectivity ratio in series [3] is 4.8. Further, the ED50 in the series on Mus musculus [4] was 11 mg/kg.
Taken in the same sequence, the figures for `CCN1CCN(CCCC(=O)OCCCC(=O)Oc2c(C(C)C)cccc2C(C)C)CC1.Cl` were 31900 µmol/kg, 11 s, 456 s, 4.9 and 6.5 mg/kg.
On to `CC(C)c1cccc(C(C)C)c1OC(=O)CCCOC(=O)CN1CCCCC1.Cl`, for which the median lethal dose (LD50) in series [1] came out at 39800 µmol/kg. The Time is reported as 27 s in the series with Mus musculus [2] and 440 s with Mus musculus [5]. Also, the selectivity ratio in series [3] worked out at 4.8. This compound also showed an ED50 in the series with Mus musculus [4] of 8.3 mg/kg.
On to `CC1CCN(CCC(=O)Oc2c(C(C)C)cccc2C(C)C)CC1.Cl`, for which the LD50 in series [1] worked out at 38900 µmol/kg. Besides, the Time is 41 s in the series with Mus musculus [2] and 179 s in the series on Mus musculus [5]. In addition, the selectivity ratio in series [3] worked out at 4.2. It took a dose of 9.2 mg/kg to reach the 50% effect level in the series with Mus musculus [4] (ED50).
The like results for `CC(C)c1cccc(C(C)C)c1OC(=O)CN1CCCCC1C.Cl` (stereo not given) were, in that order, 15800 µmol/kg, 27 s, 150 s, 1.7 and 9.2 mg/kg.
Turning to `CC1CCN(CC(=O)OCCCC(=O)Oc2c(C(C)C)cccc2C(C)C)CC1.Cl`, the median lethal dose (LD50) in series [1] amounted to 17600 µmol/kg. The Time in the series on Mus musculus [2] amounted to 8 s; with Mus musculus [5], 362 s. Also, the selectivity ratio in series [3] turned out to be 4.8. The compound further registered an ED50 in the series on Mus musculus [4] of 3.6 mg/kg.
The like results for `CC(C)c1cccc(C(C)C)c1OC(=O)CCCOC(=O)CCCN1CCOCC1.Cl` were, in that order, 17500 µmol/kg, 7 s, 375 s, 4.9 and 3.6 mg/kg.
Taken in the same sequence, the figures for `CCN1CCN(CC(=O)OCCCC(=O)Oc2c(C(C)C)cccc2C(C)C)CC1.Cl` were 50500 µmol/kg, 16 s, 193 s, 5 and 10.1 mg/kg.
Taken in the same sequence, the figures for `CC(C)c1cccc(C(C)C)c1OC(=O)CCN1CCN(C)CC1.Cl` were 33400 µmol/kg, 14 s, 156 s, 3.7 and 9 mg/kg.
Consider `CC1CCCN(CCCC(=O)OCCCC(=O)Oc2c(C(C)C)cccc2C(C)C)C1.Cl` (stereo not given), for which the LD50 in series [1] was determined as 10700 µmol/kg. The Time is 11 s in the series with Mus musculus [2] and 571 s in the series on Mus musculus [5]. Also, the selectivity ratio in series [3] worked out at 5.6. In the series with Mus musculus [4], this compound showed an ED50 of 1.9 mg/kg.
In the case of `CC1CCCN(CC(=O)OCCCC(=O)Oc2c(C(C)C)cccc2C(C)C)C1.Cl` (stereo not given), the 50% lethal dose (LD50) in series [1] was determined as 14700 µmol/kg. The Time in the series with Mus musculus [2] came to 16 s; with Mus musculus [5], 547 s. In series [3], the selectivity ratio was determined as 5.1. Also, the ED50 in the series with Mus musculus [4] came to 2.9 mg/kg.
Taken in the same sequence, the figures for `CC(C)c1cccc(C(C)C)c1OC(=O)CCCOC(=O)CCCN1CCCC1.Cl` were 46400 µmol/kg, 1 s, 534 s, 5.2 and 8.9 mg/kg.
Taken in the same sequence, the figures for `CC1CCN(CC(=O)Oc2c(C(C)C)cccc2C(C)C)CC1.Cl` were 18000 µmol/kg, 11 s, 137 s, 1.6 and 11.1 mg/kg.
The like results for `CC1CCCN(CC(=O)Oc2c(C(C)C)cccc2C(C)C)C1.Cl` (stereo not given) were, in that order, 3900 µmol/kg, 27 s, 172 s, 2.3 and 1.7 mg/kg.
With `CC1CCN(CCCC(=O)OCCCC(=O)Oc2c(C(C)C)cccc2C(C)C)CC1.Cl`, the LD50 in series [1] was determined as 13100 µmol/kg. Also, the values for the Time in the series on Mus musculus [2] and in the series on Mus musculus [5] were 3 s and 337 s, respectively. In addition, the selectivity ratio in series [3] is 5.2. This compound also returned an ED50 with Mus musculus [4] of 2.5 mg/kg.
Taken in the same sequence, the figures for `CC(C)c1cccc(C(C)C)c1OC(=O)CCCOC(=O)CN1CCCCC1C.Cl` (stereo not given) were 62800 µmol/kg, 9 s, 317 s, 4.8 and 13 mg/kg.
Take `CC(C)c1cccc(C(C)C)c1OC(=O)CCCOC(=O)CN1CCCC1.Cl`: in series [1], the LD50 worked out at 56500 µmol/kg. Further, the values for the Time in the series with Mus musculus [2] and in the series on Mus musculus [5] were 18 s and 216 s, respectively. Besides, the selectivity ratio in series [3] came out at 5. Besides, the median effective dose (ED50) in the series with Mus musculus [4] is 11.3 mg/kg.
The like results for `CC(C)c1cccc(C(C)C)c1OC(=O)CCN1CCCC1.Cl` were, in that order, 3900 µmol/kg, 5 s, 180 s, 2.6 and 15.1 mg/kg.
For the compound `CC(C)c1cccc(C(C)C)c1OC(=O)CCCOC(=O)CCCN1CCCCC1.Cl`, the LD50 in series [1] was determined as 12300 µmol/kg. The results for the Time in the series on Mus musculus [2] and with Mus musculus [5] were 8 s and 413 s, respectively. In addition, in series [3], the selectivity ratio came out at 5.1. This compound yielded a 50% effective dose (ED50) with Mus musculus [4] of 2.4 mg/kg.
Taken in the same sequence, the figures for `CCN(CC)CCCC(=O)OCCCC(=O)Oc1c(C(C)C)cccc1C(C)C.Cl` were 36300 µmol/kg, 24 s, 486 s, 5.1 and 7.1 mg/kg.
Taken in the same sequence, the figures for `CC(C)c1cccc(C(C)C)c1OC(=O)CCCOC(=O)CN1CCOCC1.Cl` were 39600 µmol/kg, 19 s, 434 s, 4.8 and 8.2 mg/kg.
Consider `CC(C)c1cccc(C(C)C)c1OC(=O)CCCOC(=O)CCCN1CCCCC1C.Cl` (stereo not given), for which the LD50 in series [1] is 32100 µmol/kg. Also, the Time in the series with Mus musculus [2] is 9 s; with Mus musculus [5], 412 s. The selectivity ratio in series [3] came to 5.2. The ED50 in the series with Mus musculus [4] came to 6.2 mg/kg.
`CCCN(CCC)CCCC(=O)OCCCC(=O)Oc1c(C(C)C)cccc1C(C)C.Cl`: the median lethal dose (LD50) in series [1] was determined as 48100 µmol/kg. The Time is reported as 21 s in the series with Mus musculus [2] and 536 s in the series with Mus musculus [5]. In addition, the selectivity ratio in series [3] stood at 5.2. The 50% effect level in the series on Mus musculus [4] (ED50) was put at a dose of 9.2 mg/kg.
On to `CCCN(CCC)CCC(=O)Oc1c(C(C)C)cccc1C(C)C.Cl`, for which, in series [1], the LD50 amounted to 57600 µmol/kg. The Time in the series with Mus musculus [2] came out at 5 s; with Mus musculus [5], 168 s. Also, the selectivity ratio in series [3] was 3.8. Besides, the 50% effect level in the series with Mus musculus [4] (ED50) was put at a dose of 15.2 mg/kg.
Regarding `CC(C)c1cccc(C(C)C)c1OC(=O)CCN1CCCCC1C.Cl` (stereo not given), in series [1], the 50% lethal dose (LD50) came to 57700 µmol/kg. Further, the Time in the series on Mus musculus [2] is 2 s; with Mus musculus [5], 154 s. Moreover, the selectivity ratio in series [3] was determined as 4.1. In the series with Mus musculus [4], this compound registered an ED50 of 14 mg/kg.
For the compound `CC1CCCN(CCC(=O)Oc2c(C(C)C)cccc2C(C)C)C1.Cl` (stereo not given), the LD50 in series [1] is 28700 µmol/kg. The Time with Mus musculus [2] is 18 s; in the series with Mus musculus [5] it was 144 s. Moreover, the selectivity ratio in series [3] was 4.1. The same compound had a median effective dose (ED50) in the series with Mus musculus [4] of 7.1 mg/kg.
The like results for `CC(C)c1cccc(C(C)C)c1O` [PROPOFOL] were, in that order, 1600 µmol/kg, 15 s, 57 s, 2.7 and 0.6 mg/kg.
